Tests used:
[1] = test system: rat oligodendrocyte progenitor cells; test: Promotive activity of rat oligodendrocyte progenitor cell differentiation-1 (MBP gene expression, mRNA); assay type: cell-based; conditions: 96 h, read-out: promotive activity at T3 base (MBP gene expression; DMSO 0%, T3 100%)
Experimental: Regarding vitamin D derivatives, which was confirmed to act on the vitamin D receptor (VDR) in Example 352, the promotive activity of oligodendrocyte progenitor cell (OPC) differentiation was evaluated by MBP gene expression (mRNA).
A forebrain obtained from SD rat (Charles River Japan, 1 day old) was crushed with 70 μm Cell Strainer (Falcon #352350), and a cell suspension was prepared by collecting the cells in oligodendrocyte progenitor cell separation medium (20% FBS/2 mM Glutamax (Gibco #35050-061)/i mM sodium pyruvate (Gibco #11360-070)/1% penicillin-streptomycin (Invitrogen #15140-122)/DMEM (Gibco #11960-044)). The cell suspension was seeded in a poly-D-lysine coated T75 flask (Thermo Fisher Scientific #132704) and cultured for about 2 weeks. After culturing, the flask was shaken using a rotary shaker ([…] #WB-101SRC) for about 1 hour (37° C., 100 rpm), and the supernatant was discarded to remove microglia. Subsequently, oligodendrocyte progenitor cell separation medium was added to the flask, and the mixture was similarly shaken for about 22 hours (37° C., 200 rpm), and the supernatant was collected to prepare oligodendrocyte progenitor cells. […]

[2] = Evaluation of brain penetration in mice; assay type: in vivo, mouse; conditions: C57BL/6J mice; for Concentration in brain (mean ± SD) at brain Cmax: Test 2: 0.2 mg/kg single oral dose, n=3
Experimental: The administration solution was administered orally to C57BL/6J mice (8 weeks old, male, n=3) at a single dose (1 mg/kg). Mice were euthanized at 6 points of 0.25, 0.5, 1, 2, 4, and 8 hours after administration, and plasma and brain sampling were performed. After preparing a homogenate from the collected brain using Tissue Lyser II (QIAGEN #85300), acetonitrile was added to the homogenate and the homogenate was centrifuged (12000 rpm, 5 minutes) to extract the administered test compound contained in the brain. Similarly, the plasma was subjected to addition of acetonitrile and centrifugal separation to extract the administered test compound contained in the plasma. Each extracted sample was subjected to measurement of the concentration of administered test compound using LC/MS/MS (SHIMADZU UFLC/MS/MS (8050)).
The administration solution was administered orally to C57BL/6J mice (8 weeks old, male, n=3) at a single dose (0.2 mg/kg). Mice were euthanized at 6 points of 0.25, 0.5, 1, 2, 4, and 8 hours after administration, and plasma and brain sampling were performed. After preparing a homogenate from the collected brain using Tissue Lyser II (QIAGEN #85300), acetonitrile was added to the homogenate and the homogenate was centrifuged (12000 rpm, 5 minutes) to extract the administered compound contained in the brain. Similarly, the plasma was subjected to addition of acetonitrile and centrifugal separation to extract the administered test compound contained in the plasma. Each extracted sample was subjected to measurement of the concentration of administered test compound using LC/MS/MS (SHIMADZU UFLC/MS/MS (8050)).

[3] = test system: mouse experimental autoimmune encephalomyelitis model; test: Combination therapy with the vitamin D derivative and an immunosuppressant (fingolimod) in mouse experimental autoimmune encephalomyelitis model; assay type: in vivo; conditions: for clinical score on the day after final administration (Day 30): oral once a day, two weeks
Experimental: Using a mouse experimental autoimmune encephalomyelitis model, we evaluated the efficacy of the vitamin D derivative of the present invention in combination with fingolimod (an immunosuppressant) approved as a therapeutic drug for multiple sclerosis.
A mouse experimental autoimmune encephalomyelitis model was generated using the Hooke Kit MOG35-55/CFA Emulsion PTX (Cosmo Bio #EK-2110). C57BL/6J mice (11 weeks old, female) were anesthetized with 2.5% isoflurane inhalation and administered 0.1 mL of MOG35-55-CFA subcutaneously to the back and base of the tail, and then two hours later, administered 0.1 mL of pertussis toxin (PTX) intraperitoneally for the initial immunization. One day after the first immunization, 0.1 mL of PTX was administered intraperitoneally again. After the first immunization, clinical scores were measured once a day based on the following criteria. • 0 No abnormality • 0.5 Decrease in tension at the tip of the tail • 1.0 Limp tail • 1.5 Limp tail, and weakness of one hind limb • 2.0 Limp tail, and weakness of both hind limbs with abnormal gait • 2.5 Limp tail, and partial paralysis of one hind limb or abnormal righting reflex • 3.0 Limp tail, and partial paralysis of both hind limbs • 3.5 Limp tail, and paralysis of one hind limb • 4.0 Limp tail, and paralyses of both hind limbs • 4.5 Limp tail, paralyses of both hind legs, and weakness of one forelimb • 5.0 Limp tail, paralyses of both hind limbs, and weakness of both forelimbs (moribund)
Sixteen days after the first immunization, the disease-induced groups were divided into six groups of eight mice each based on the clinical scores, and administration of the compound (D023 6 g/kg) or vehicle was started. […] Two weeks after administration, the mice were euthanized and their spinal cords and whole blood were collected. The intact group indicates a non-treated group.

[4] = Evaluation of calcium increasing action in normal mice; conditions: 2 weeks; for Serum calcium conc.: C57BL/6J mice, Vehicle 8.9
Experimental: After acclimatizing C57BL/6J mice (7 weeks old, male) for 1 week, the mice were divided into groups of 5 mice based on the body weight, and administration of the compound or vehicle was started. The administration solution used was a compound (in ethanol) or ethanol diluted 100-fold with 0.1% Trion X-100 (SIGMA #X100-100 ML)/saline, and the repeated oral administration at once a day was performed. After administration of 2 weeks, euthanasia was performed by collecting all blood under general anesthesia.

[5] = compound D023 + fingolimod 0.1 mg/kg (Combination L) vs single group of fingolimod 0.1 mg/kg
[6] = compound D023 + fingolimod 1.0 mg/kg (Combination H) vs single group of fingolimod 1.0 mg/kg

COC1(C)CCCN(C[C@@H](C)[C@H]2CC[C@H]3/C(=C/C=C4C[C@@H](O)C[C@H](O)C4)CCC[C@]23C)C1 (stereo partly drawn) [Compound C045b, (1R,3R)-5-(2-((1R,3aS,7aR,E)-1-((2S)-1-(3-methoxy-3-methylpiperidine-1-yl)propan-2-yl)-7a-methyloctahydro-4H-inden-4-ylidene)ethylidene)cyclohexane-1,3-diol]
activation at 1 µM [1]: ≥ 20%

C[C@H](CN1CCOC2(CC2)C1)[C@H]1CC[C@H]2/C(=C/C=C3C[C@@H](O)C[C@H](O)C3)CCC[C@]12C [Compound D019, (1R,3R)-5-(2-((1R,3aS,7aR,E)-1-((S)-1-(4-oxa-7-azaspiro[2.5]octan-7-yl)propan-2-yl)-7a-methyloctahydro-4H-inden-4-ylidene)ethylidene)cyclohexane-1,3-diol]
Concentration ratio in brain/in blood at brain Cmax ([2]; Test 1: 1 mg/kg single oral dose): 2.89

C[C@H](CCN1CCOCC1)[C@H]1CC[C@H]2/C(=C/C=C3C[C@@H](O)C[C@H](O)C3)CCC[C@]12C [Compound D023, (1R,3R)-5-(2-((1R,3aS,7aR,E)-7a-methyl-1-((R)-4-morpholinobutan-2-yl)octahydro-4H-inden-4-ylidene)ethylidene)cyclohexane-1,3-diol]
blood lymphocyte count on the day after final administration (Day 30) [3, 5]: no significant difference
clinical score on the day after final administration (Day 30) [3, 5]: significantly lower clinical score
blood lymphocyte count on the day after final administration (Day 30) [3, 6]: neither was there a significant difference
clinical score on the day after final administration (Day 30) [3, 6]: significantly lower clinical score

C[C@H](CN1CCOC[C@@H]1C)[C@H]1CC[C@H]2/C(=C/C=C3C[C@@H](O)C[C@H](O)C3)CCC[C@]12C [Compound G004, (1R,3R)-5-(2-((1R,3aS,7aR,E)-7a-methyl-1-((S)-1-((S)-3-methylmorpholino)propan-2-yl)octahydro-4H-inden-4-ylidene)ethylidene)cyclohexane-1,3-diol]
Calcium conc. Fluctuation range ([4]; 20 μg/kg oral once a day): 0 mg/dL
Serum calcium conc. ([4]; 20 μg/kg oral once a day): 8.9 mg/dL
Calcium conc. Fluctuation range ([4]; 60 μg/kg oral once a day): -0.1 mg/dL
Serum calcium conc. ([4]; 60 μg/kg oral once a day): 8.8 mg/dL
Calcium conc. Fluctuation range ([4]; 200 μg/kg oral once a day): 0.1 mg/dL
Serum calcium conc. ([4]; 200 μg/kg oral once a day): 9.0 mg/dL
Concentration in brain (mean ± SD) at brain Cmax [2]: 171.2 ± 37.4 pmol/g

C[C@H](CN1CCOC[C@H]1C)[C@H]1CC[C@H]2/C(=C/C=C3C[C@@H](O)C[C@H](O)C3)CCC[C@]12C [Compound G005, (1R,3R)-5-(2-((1R,3aS,7aR,E)-7a-methyl-1-((S)-1-((R)-3-methylmorpholino)propan-2-yl)octahydro-4H-inden-4-ylidene)ethylidene)cyclohexane-1,3-diol]
Calcium conc. Fluctuation range ([4]; 20 μg/kg oral once a day): 0.2 mg/dL
Serum calcium conc. ([4]; 20 μg/kg oral once a day): 9.1 mg/dL
Calcium conc. Fluctuation range ([4]; 60 μg/kg oral once a day): 0.2 mg/dL
Serum calcium conc. ([4]; 60 μg/kg oral once a day): 9.1 mg/dL
Calcium conc. Fluctuation range ([4]; 200 μg/kg oral once a day): 0.1 mg/dL
Serum calcium conc. ([4]; 200 μg/kg oral once a day): 9.0 mg/dL
Concentration in brain (mean ± SD) at brain Cmax [2]: 140.8 ± 17.6 pmol/g

C[C@H](CN1CCOCC1(C)C)[C@H]1CC[C@H]2/C(=C/C=C3C[C@@H](O)C[C@H](O)C3)CCC[C@]12C [Compound G006, (1R,3R)-5-(2-((1R,3aS,7aR,E)-1-((S)-1-(3,3-dimethylmorpholino)propan-2-yl)-7a-methyloctahydro-4H-inden-4-ylidene)ethylidene)cyclohexane-1,3-diol]
Calcium conc. Fluctuation range ([4]; 20 μg/kg oral once a day): 0 mg/dL
Serum calcium conc. ([4]; 20 μg/kg oral once a day): 8.9 mg/dL
Calcium conc. Fluctuation range ([4]; 60 μg/kg oral once a day): 0 mg/dL
Serum calcium conc. ([4]; 60 μg/kg oral once a day): 8.9 mg/dL
Calcium conc. Fluctuation range ([4]; 200 μg/kg oral once a day): -0.3 mg/dL
Serum calcium conc. ([4]; 200 μg/kg oral once a day): 8.6 mg/dL
Concentration in brain (mean ± SD) at brain Cmax [2]: 137.8 ± 11.5 pmol/g

From patent publication US20250195488A1, “MEDICINE CONTAINING VITAMIN D DERIVATIVE OR PHARMACEUTICALLY ACCEPTABLE SALT OR SOLVATE THEREOF, USED IN COMBINATION WITH IMMUNOMODULATORY SUBSTANCE” (TEEJIN PHARMA LIMITED, priority 2022, published 2025)
